According to PubChem BioAssay (NCI):
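How tested: cells in 96-well plates exposed to compound for 48 hours at five concentrations. TGI is the concentration that stops growth completely.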

Experiments:
Assay in all cases: DTP human tumour cell line panel, 48 h
SNB-19 CNS = tested on: SNB-19 CNS
NCI-H522 lung = tested on: NCI-H522 lung
SNB-75 CNS = tested on: SNB-75 CNS
OVCAR-3 ovarian = tested on: OVCAR-3 ovarian
SK-MEL-28 melanoma = tested on: SK-MEL-28 melanoma
RXF 393 renal = tested on: RXF 393 renal
UO-31 renal = tested on: UO-31 renal
DMS 114 small cell lung = tested on: DMS 114 small cell lung
RPMI-8226 leukemia = tested on: RPMI-8226 leukemia
SF-268 CNS = tested on: SF-268 CNS
UACC-257 melanoma = tested on: UACC-257 melanoma
CAKI-1 renal = tested on: CAKI-1 renal
LOX IMVI melanoma = tested on: LOX IMVI melanoma
SF-539 CNS = tested on: SF-539 CNS
SK-OV-3 ovarian = tested on: SK-OV-3 ovarian
M19-MEL melanoma = tested on: M19-MEL melanoma
OVCAR-4 ovarian = tested on: OVCAR-4 ovarian
HT29 colon = tested on: HT29 colon
SF-295 CNS = tested on: SF-295 CNS
KM20L2 colon = tested on: KM20L2 colon
SNB-78 CNS = tested on: SNB-78 CNS
HCC-2998 colon = tested on: HCC-2998 colon
NCI-H226 lung = tested on: NCI-H226 lung
ACHN renal = tested on: ACHN renal
HCT-116 colon = tested on: HCT-116 colon
MALME-3M melanoma = tested on: MALME-3M melanoma
COLO 205 colon = tested on: COLO 205 colon
786-0 renal = tested on: 786-0 renal
HOP-62 NSCLC = tested on: HOP-62 NSCLC
KM12 colon = tested on: KM12 colon
HL-60(TB) leukemia = tested on: HL-60(TB) leukemia
SK-MEL-5 melanoma = tested on: SK-MEL-5 melanoma
HCT-15 colon = tested on: HCT-15 colon
CCRF-CEM leukemia = tested on: CCRF-CEM leukemia
IGROV1 ovarian = tested on: IGROV1 ovarian
MOLT-4 leukemia = tested on: MOLT-4 leukemia
EKVX NSCLC = tested on: EKVX NSCLC
SR leukemia = tested on: SR leukemia
SN12C renal = tested on: SN12C renal
TK-10 renal = tested on: TK-10 renal
U251 CNS = tested on: U251 CNS
LXFL 529 NSCLC = tested on: LXFL 529 NSCLC
HOP-18 NSCLC = tested on: HOP-18 NSCLC
K-562 leukemia = tested on: K-562 leukemia
OVCAR-5 ovarian = tested on: OVCAR-5 ovarian
OVCAR-8 ovarian = tested on: OVCAR-8 ovarian
DLD-1 colon = tested on: DLD-1 colon
HOP-92 NSCLC = tested on: HOP-92 NSCLC
RXF-631 renal = tested on: RXF-631 renal
UACC-62 melanoma = tested on: UACC-62 melanoma
A549 NSCLC = tested on: A549 NSCLC
NCI-H23 lung = tested on: NCI-H23 lung
A498 renal = tested on: A498 renal
DMS 273 small cell lung = tested on: DMS 273 small cell lung
M14 melanoma = tested on: M14 melanoma
SK-MEL-2 melanoma = tested on: SK-MEL-2 melanoma
NCI-H460 lung = tested on: NCI-H460 lung
SW-620 colon = tested on: SW-620 colon
XF 498 CNS = tested on: XF 498 CNS

## CCOC(OC1=C(C#N)CCC1)C(C)[Se]c1ccccc1 (configuration not stated)
SNB-19 CNS
  TGI: > 100 µM
NCI-H522 lung
  TGI: 26.7 µM
SNB-75 CNS
  TGI: 77.9 µM
OVCAR-3 ovarian
  TGI: 42.5 µM
SK-MEL-28 melanoma
  TGI: 96.9 µM
RXF 393 renal
  TGI: 34.7 µM
UO-31 renal
  TGI: 67.4 µM
DMS 114 small cell lung
  TGI: 14.2 µM
RPMI-8226 leukemia
  TGI: 53.1 µM
SF-268 CNS
  TGI: 46.6 µM
UACC-257 melanoma
  TGI: > 100 µM
CAKI-1 renal
  TGI: > 100 µM
LOX IMVI melanoma
  TGI: 22.9 µM
SF-539 CNS
  TGI: 41 µM
SK-OV-3 ovarian
  TGI: > 100 µM
M19-MEL melanoma
  TGI: 30.9 µM
OVCAR-4 ovarian
  TGI: 30.5 µM
HT29 colon
  TGI: > 100 µM
SF-295 CNS
  TGI: 71.6 µM
KM20L2 colon
  TGI: > 100 µM
SNB-78 CNS
  TGI: > 100 µM
HCC-2998 colon
  TGI: > 100 µM
NCI-H226 lung
  TGI: 51.7 µM
ACHN renal
  TGI: 96.2 µM
HCT-116 colon
  TGI: 42.4 µM
MALME-3M melanoma
  TGI: 51.9 µM
COLO 205 colon
  TGI: > 100 µM
786-0 renal
  TGI: 27.8 µM
HOP-62 NSCLC
  TGI: > 100 µM
KM12 colon
  TGI: > 100 µM
HL-60(TB) leukemia
  TGI: 73.8 µM
SK-MEL-5 melanoma
  TGI: 34 µM
HCT-15 colon
  TGI: 35.2 µM
CCRF-CEM leukemia
  TGI: > 100 µM
IGROV1 ovarian
  TGI: 68.8 µM
MOLT-4 leukemia
  TGI: 43.7 µM
EKVX NSCLC
  TGI: 82.6 µM
SR leukemia
  TGI: 34.8 µM
SN12C renal
  TGI: 35.8 µM
TK-10 renal
  TGI: > 100 µM
U251 CNS
  TGI: 21.5 µM
LXFL 529 NSCLC
  TGI: 46 µM
HOP-18 NSCLC
  TGI: 55.3 µM
K-562 leukemia
  TGI: > 100 µM
OVCAR-5 ovarian
  TGI: > 100 µM
OVCAR-8 ovarian
  TGI: 35.9 µM
DLD-1 colon
  TGI: 87.6 µM
HOP-92 NSCLC
  TGI: 49.3 µM
RXF-631 renal
  TGI: 26.3 µM
UACC-62 melanoma
  TGI: 43.9 µM
A549 NSCLC
  TGI: > 100 µM
NCI-H23 lung
  TGI: 26.6 µM
A498 renal
  TGI: > 100 µM
DMS 273 small cell lung
  TGI: 29.7 µM
M14 melanoma
  TGI: 33.4 µM
SK-MEL-2 melanoma
  TGI: > 100 µM
NCI-H460 lung
  TGI: > 100 µM

## CCC1=CCN(c2ccc(C)cc2)OC1c1ccc(OC)cc1 (configuration not stated)
SNB-19 CNS
  TGI: > 100 µM
NCI-H522 lung
  TGI: > 100 µM
SNB-75 CNS
  TGI: > 100 µM
OVCAR-3 ovarian
  TGI: > 100 µM
SK-MEL-28 melanoma
  TGI: > 100 µM
RXF 393 renal
  TGI: > 100 µM
UO-31 renal
  TGI: > 100 µM
DMS 114 small cell lung
  TGI: > 100 µM
RPMI-8226 leukemia
  TGI: > 100 µM
SF-268 CNS
  TGI: > 100 µM
UACC-257 melanoma
  TGI: > 100 µM
CAKI-1 renal
  TGI: > 100 µM
LOX IMVI melanoma
  TGI: > 100 µM
SF-539 CNS
  TGI: > 100 µM
SK-OV-3 ovarian
  TGI: > 100 µM
M19-MEL melanoma
  TGI: > 100 µM
OVCAR-4 ovarian
  TGI: > 100 µM
HT29 colon
  TGI: > 100 µM
SF-295 CNS
  TGI: > 100 µM
KM20L2 colon
  TGI: > 100 µM
SNB-78 CNS
  TGI: > 100 µM
SW-620 colon
  TGI: > 100 µM
HCC-2998 colon
  TGI: > 100 µM
NCI-H226 lung
  TGI: > 100 µM
ACHN renal
  TGI: > 100 µM
HCT-116 colon
  TGI: > 100 µM
MALME-3M melanoma
  TGI: > 100 µM
COLO 205 colon
  TGI: > 100 µM
786-0 renal
  TGI: > 100 µM
HOP-62 NSCLC
  TGI: > 100 µM
KM12 colon
  TGI: > 100 µM
HL-60(TB) leukemia
  TGI: > 100 µM
HCT-15 colon
  TGI: > 100 µM
CCRF-CEM leukemia
  TGI: > 100 µM
IGROV1 ovarian
  TGI: > 100 µM
MOLT-4 leukemia
  TGI: > 100 µM
EKVX NSCLC
  TGI: > 100 µM
SR leukemia
  TGI: > 100 µM
SN12C renal
  TGI: > 100 µM
TK-10 renal
  TGI: > 100 µM
U251 CNS
  TGI: > 100 µM
LXFL 529 NSCLC
  TGI: > 100 µM
K-562 leukemia
  TGI: > 100 µM
OVCAR-5 ovarian
  TGI: > 100 µM
OVCAR-8 ovarian
  TGI: > 100 µM
DLD-1 colon
  TGI: > 100 µM
RXF-631 renal
  TGI: > 100 µM
XF 498 CNS
  TGI: > 100 µM
UACC-62 melanoma
  TGI: > 100 µM
A549 NSCLC
  TGI: > 100 µM
NCI-H23 lung
  TGI: > 100 µM
DMS 273 small cell lung
  TGI: > 100 µM
M14 melanoma
  TGI: > 100 µM
SK-MEL-2 melanoma
  TGI: > 100 µM
NCI-H460 lung
  TGI: > 100 µM
